Columns and labels:
Experiment in all cases: relative viability (nuclei count vs DMSO), 5 days (fraction); higher = more cells survive
[1] = system: NCI-H1793
Procedure, shortened: (§1)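 Dosing by pin tool came one day after lung cancer cell lines were seeded in 1536-well plates, using either one drug or a fixed anchor-drug dose plus five library-drug doses (not always all listed) in √10 steps. After 5 days, nuclei were counted on 4× images. Relative viability is treated-well nuclei count divided by vehicle-well nuclei count, and values are medians of duplicate plates.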

[2] = system: A-427
Procedure, shortened: as §1

[3] = system: HCC-366
Procedure, shortened: as §1

[4] = system: NCI-H2023
Procedure, shortened: as §1

[5] = system: NCI-H2405
Procedure, shortened: as §1

[6] = system: NCI-H2009
Procedure, shortened: as §1

[7] = system: NCI-H1437
Procedure, shortened: as §1

[8] = system: UMC-11
Procedure, shortened: as §1

[9] = system: NCI-H596
Procedure, shortened: as §1

[10] = system: HARA
Procedure, shortened: as §1

[11] = system: NCI-H1975
Procedure, shortened: as §1

[12] = system: SK-LU-1
Procedure, shortened: as §1

[13] = system: NCI-H441
Procedure, shortened: as §1

[14] = system: NCI-H650
Procedure, shortened: as §1

[15] = system: PC-14
Procedure, shortened: as §1

[16] = system: NCI-H1755
Procedure, shortened: as §1

[17] = system: LXF-289
Procedure, shortened: as §1

[18] = system: H3255
Procedure, shortened: as §1

[19] = system: NCI-H1915
Procedure, shortened: as §1

[20] = system: NCI-H460
Procedure, shortened: as §1

[21] = system: PC-3 [JPC-3]
Procedure, shortened: as §1

[22] = system: NCI-H3122
Procedure, shortened: as §1

[23] = system: HCC-15
Procedure, shortened: as §1

For O=c1[nH]c2ccccc2n1C1CCN(CCCC(c2ccc(F)cc2)c2ccc(F)cc2)CC1 [Pimozide] + Nc1ncn([C@H]2C[C@H](O)[C@@H](CO)O2)c(=O)n1 [Decitabine] (partner 2 µM), the relative viability ([1]; first compound 0.08 µM) was 0.501, the relative viability ([1]; first compound 0.253 µM) was 0.489 and the relative viability ([1]; first compound 0.8 µM) was 0.516. For the same compound, the relative viability ([1]; first compound 2.53 µM) was 0.556, the relative viability ([1]; first compound 8 µM) was 0.58 and the relative viability ([2]; first compound 0.08 µM) was 0.527. The relative viability ([2]; first compound 0.253 µM) was 0.583, the relative viability ([2]; first compound 0.8 µM) was 0.606 and the relative viability ([2]; first compound 2.53 µM) was 0.479. It also gave a relative viability ([2]; first compound 8 µM) of 0.57, a relative viability ([3]; first compound 0.08 µM) of 0.324 and a relative viability ([3]; first compound 0.253 µM) of 0.34. The relative viability ([3]; first compound 0.8 µM) was 0.285, the relative viability ([3]; first compound 2.53 µM) was 0.346 and the relative viability ([3]; first compound 8 µM) was 0.296. It also gave a relative viability ([4]; first compound 0.08 µM) of 0.229, a relative viability ([4]; first compound 0.253 µM) of 0.273 and a relative viability ([4]; first compound 0.8 µM) of 0.196. For the same compound, the relative viability ([4]; first compound 2.53 µM) was 0.247, the relative viability ([4]; first compound 8 µM) was 0.284 and the relative viability ([5]; first compound 0.08 µM) was 0.71. For the same compound, the relative viability ([5]; first compound 0.253 µM) was 0.686, the relative viability ([5]; first compound 0.8 µM) was 0.695 and the relative viability ([5]; first compound 2.53 µM) was 0.69. For the same compound, the relative viability ([5]; first compound 8 µM) was 0.669, the relative viability ([6]; first compound 0.08 µM) was 0.442 and the relative viability ([6]; first compound 0.253 µM) was 0.374. The relative viability ([6]; first compound 0.8 µM) was 0.327, the relative viability ([6]; first compound 2.53 µM) was 0.436 and the relative viability ([6]; first compound 8 µM) was 0.412. It also gave a relative viability ([7]; first compound 0.08 µM) of 0.632, a relative viability ([7]; first compound 0.253 µM) of 0.547 and a relative viability ([7]; first compound 0.8 µM) of 0.555. It also gave a relative viability ([7]; first compound 2.53 µM) of 0.465, a relative viability ([7]; first compound 8 µM) of 0.549 and a relative viability ([8]; first compound 0.08 µM) of 0.638. The relative viability ([8]; first compound 0.253 µM) was 0.579, the relative viability ([8]; first compound 0.8 µM) was 0.53 and the relative viability ([8]; first compound 2.53 µM) was 0.593. It also gave a relative viability ([8]; first compound 8 µM) of 1.03, a relative viability ([9]; first compound 0.08 µM) of 0.97 and a relative viability ([9]; first compound 0.253 µM) of 0.931. The relative viability ([9]; first compound 0.8 µM) was 0.986, the relative viability ([9]; first compound 2.53 µM) was 0.85 and the relative viability ([9]; first compound 8 µM) was 1.08. For the same compound, the relative viability ([10]; first compound 0.08 µM) was 0.535, the relative viability ([10]; first compound 0.253 µM) was 0.586 and the relative viability ([10]; first compound 0.8 µM) was 0.476. The relative viability ([10]; first compound 2.53 µM) was 0.528, the relative viability ([10]; first compound 8 µM) was 0.617 and the relative viability ([11]; first compound 0.08 µM) was 0.347. For the same compound, the relative viability ([11]; first compound 0.253 µM) was 0.387, the relative viability ([11]; first compound 0.8 µM) was 0.391 and the relative viability ([11]; first compound 2.53 µM) was 0.368. The relative viability ([11]; first compound 8 µM) was 0.419, the relative viability ([12]; first compound 0.08 µM) was 0.631 and the relative viability ([12]; first compound 0.253 µM) was 0.741. For the same compound, the relative viability ([12]; first compound 0.8 µM) was 0.6, the relative viability ([12]; first compound 2.53 µM) was 0.583 and the relative viability ([12]; first compound 8 µM) was 0.49. The relative viability ([13]; first compound 0.08 µM) was 0.208, the relative viability ([13]; first compound 0.253 µM) was 0.255 and the relative viability ([13]; first compound 0.8 µM) was 0.234. The relative viability ([13]; first compound 2.53 µM) was 0.236, the relative viability ([13]; first compound 8 µM) was 0.241 and the relative viability ([14]; first compound 0.08 µM) was 0.278. The relative viability ([14]; first compound 0.253 µM) was 0.33, the relative viability ([14]; first compound 0.8 µM) was 0.342 and the relative viability ([14]; first compound 2.53 µM) was 0.321. The relative viability ([14]; first compound 8 µM) was 0.275, the relative viability ([15]; first compound 0.253 µM) was 0.221 and the relative viability ([15]; first compound 0.8 µM) was 0.228. It also gave a relative viability ([15]; first compound 2.53 µM) of 0.144, a relative viability ([15]; first compound 8 µM) of 0.231 and a relative viability ([16]; first compound 0.08 µM) of 0.675. The relative viability ([16]; first compound 0.253 µM) was 0.659, the relative viability ([16]; first compound 0.8 µM) was 0.624 and the relative viability ([16]; first compound 2.53 µM) was 0.684. It also gave a relative viability ([16]; first compound 8 µM) of 0.69, a relative viability ([17]; first compound 0.08 µM) of 0.378 and a relative viability ([17]; first compound 0.253 µM) of 0.4. For the same compound, the relative viability ([17]; first compound 0.8 µM) was 0.324, the relative viability ([17]; first compound 2.53 µM) was 0.357 and the relative viability ([17]; first compound 8 µM) was 0.39. It also gave a relative viability ([18]; first compound 0.253 µM) of 0.538, a relative viability ([18]; first compound 0.8 µM) of 0.496 and a relative viability ([18]; first compound 2.53 µM) of 0.626. For the same compound, the relative viability ([18]; first compound 8 µM) was 0.734, the relative viability ([19]; first compound 0.08 µM) was 0.267 and the relative viability ([19]; first compound 0.253 µM) was 0.248. The relative viability ([19]; first compound 2.53 µM) was 0.262, the relative viability ([19]; first compound 8 µM) was 0.262 and the relative viability ([20]; first compound 0.08 µM) was 0.553. The relative viability ([20]; first compound 0.253 µM) was 0.494, the relative viability ([20]; first compound 0.8 µM) was 0.462 and the relative viability ([20]; first compound 2.53 µM) was 0.521. It also gave a relative viability ([20]; first compound 8 µM) of 0.45, a relative viability ([21]; first compound 0.253 µM) of 0.838 and a relative viability ([21]; first compound 0.8 µM) of 0.823. For the same compound, the relative viability ([21]; first compound 2.53 µM) was 0.904, the relative viability ([21]; first compound 8 µM) was 0.854 and the relative viability ([22]; first compound 0.08 µM) was 0.435. For the same compound, the relative viability ([22]; first compound 0.253 µM) was 0.392, the relative viability ([22]; first compound 0.8 µM) was 0.418 and the relative viability ([22]; first compound 2.53 µM) was 0.413. For the same compound, the relative viability ([22]; first compound 8 µM) was 0.416, the relative viability ([23]; first compound 0.08 µM) was 0.658 and the relative viability ([23]; first compound 0.253 µM) was 0.629. It also gave a relative viability ([23]; first compound 0.8 µM) of 0.452, a relative viability ([23]; first compound 2.53 µM) of 0.551 and a relative viability ([23]; first compound 8 µM) of 0.66.
